# Measurements: patent US20220016048A1, “CANNABIDIOL-TYPE CANNABINOID COMPOUND” (GW Research Limited, priority 2018, published 2022)
# “Also recorded” adds a separate entry of the source.
# Assays:
# [1] = test system: mouse model of seizure; assay: maximal electroshock (MES) test in the mouse; format: in vivo; details: for decrease in the number of mice showing tonic convulsions, as compared with vehicle controls: p<0.001
# Description: Mice were administered MES (50 mA, rectangular current: 0.6 ms pulse width, 0.4 s duration, 50 Hz) via corneal electrodes connected to a constant current shock generator (Ugo Basile: type 7801). The number of tonic convulsions was recorded.
# Twelve mice were studied per group. The test was performed blind.
# The test substance, CBD-C4, was evaluated at 5 doses (3, 10, 30, 100 and 200 mg/kg), administered i.p. 60 minutes before MES, and compared with a vehicle control group (administered under the same experimental conditions).
# Diazepam (2 mg/kg i.p.), administered i.p. 30 minutes before MES, was used as a reference substance and was compared with a vehicle group (administered i.p. 60 minutes before MES).
# Data was analysed by comparing treated groups with the appropriate vehicle control using Fisher's Exact Probability tests.
# [2] = test system: polychromatic erythrocytes (PCE) of the bone marrow; assay: Rat micronucleus assay; format: in vivo
# Description: (§1) CBD-C4 was tested for its potential to induce micronuclei (MN) in the polychromatic erythrocytes (PCE) of the bone marrow of treated rats to induce DNA damage in the liver of the same animals.
# (§2) CBD-C4 was administered at a dose of 125, 250 and 500 mg/kg/day during this study. Vehicle and a positive control of ethyl methanesulfonate (EMS) at a dose of 150 mg/kg/day were tested alongside the CBD-C4.
# (§3) A range finding study was performed on 9 male young adult out-bred Sprague Dawley rats justifying the chosen dose levels of CBD-C4 used during the study.
# (§4) Animals were allocated into groups of six with the exception of the positive control which comprised three animals.
# (§5) Rats were dosed by oral gavage with test article suspended in sesame oil, vehicle (sesame oil) or positive control.
# (§6) Blood samples were taken for bioanalysis and tissue samples were removed from animals at necropsy from the liver and femur.
# (§7) Bone marrow sampling, micronucleus slide preparation and comet cell suspensions were undertaken to determine level of toxicity of CBD-C4.
# [3] = Rat micronucleus assay; format: in vivo; details: Sprague Dawley, rat, in vivo; male rats, oral gavage; read-out: estimate of the maximum tolerated dose
# Description: as §1, §2, §3, §4, §5, §6, §7
# [4] = test system: Salmonella typhimurium (TA98, TA100, TA1535, TA1537 and TA102); assay: Ames test; format: cell-based; details: absence and presence of S-9
# Description: The aim of this study was to evaluate the potential mutagenic activity of CBD-C4 by examining its ability to revert five histidine-requiring strains of Salmonella typhimurium in the absence and presence of a rat liver metabolising system (S-9).
# Control treatments were performed with 2-nitrofluorene (2NF) at a final concentration of 5 μg/plate; Sodium azide (NaN3) at a final concentration of 2 μg/plate; 9-aminoacridine (AAC) at a final concentration of 50 μg/plate; Mitomycin C (MMC) at a final concentration of 0.2 μg/plate; Benzo[a]pyrene (B[a]P) at a final concentration of 10 μg/plate; and 2-aminoanthracene (AAN) at a final concentration of 5 and 20 μg/plate.
# Treatments were carried out both in the absence and presence of S-9 by addition of either buffer solution or 10% S-9 mix respectively.
# Five strains of Salmonella typhimurium bacteria (TA98, TA100, TA1535, TA1537 and TA102) were used in this study.
# Bacteria were cultured at 37±1° C. for 10 hours in nutrient broth, containing ampicillin or ampicillin and tetracycline as appropriate, to provide bacterial cultures in the range of approximately 10^8 to 10^9 cells/mL, based on cell count data from testing of each strain batch. […]
# Following incubation, these plates were examined for evidence of toxicity to the background lawn, and where possible revertant colonies were counted. […]
# [5] = test system: DNA damage in the liver; assay: Alkaline Comet assay; format: in vivo, rat
# Description: as §1, §2, §3, §4, §5, §6, §7
# [6] = test system: rats; assay: 13-week oral toxicity study in rats; format: in vivo, rat
# Description: (§8) The objective of the study was to determine the toxicity of CBD-C4 following daily oral (gavage) administration to the rat for 4 and 13 weeks. The toxicokinetic profile of the CBD-C4 was also assessed.
# (§9) Groups of 10 male and 10 female rats were doses at 1, 10 and 100 mg/kg/day for either 4 or 13 weeks.
# (§10) Assessment of toxicity of CBD-C4 was based on mortality, clinical observations, post-dose observations, body weights, food consumption, ophthalmic observations, clinical and anatomic pathology.
# (§11) Blood samples were collected on days 1 and 28 and week 13 of the study.
# [7] = 13-week oral toxicity study in rats; format: in vivo, rat; details: both sexes, rat, in vivo
# Description: as §8, §9, §10, §11
# [8] = 125, 250 and 500 mg/kg/day oral gavage
# [9] = 1, 10 or 100 mg/kg/day oral gavage, 4 or 13 weeks
smiles,measurement,setting,value
"C=C(C)[C@@H]1CCC(C)=C[C@H]1c1c(O)cc(CCCC)cc1O [CBD-C4, (1′R,2′R)-4-butyl-5′-methyl-2′-(prop-1-en-2-yl)-1′,2′,3′,4′-tetrahydro-[1,1′-biphenyl]-2,6-diol]","decrease in the number of mice showing tonic convulsions, as compared with vehicle controls",[1]; 100 mg/kg i.p. 60 minutes before MES,−100%
same,"decrease in the number of mice showing tonic convulsions, as compared with vehicle controls",[1]; 200 mg/kg i.p. 60 minutes before MES,−100%
same,effect on number of mice showing tonic convulsions,"[1]; lower doses 3, 10 and 30 mg/kg i.p. 60 minutes before MES",No effects
same,bone marrow toxicity,[2]; [8],no evidence of test article related bone marrow toxicity
same,micronucleus PCE frequencies,"[2]; all doses (125, 250 and 500 mg/kg/day) oral gavage",comparable with the vehicle control group
same,induction of micronuclei in polychromatic erythrocytes of the bone marrow,[2]; male rats treated up to 500 mg/kg/day,did not induce an increase in micronuclei; also recorded: No genotoxicity was observed
same,MTD,[3],~500 mg/kg/day
same,increases in revertant numbers vs concurrent vehicle control,"[4]; 5-5000 μg/plate, all test strains",no increases in revertant numbers
same,mutagenic activity,[4]; five strains,No genotoxicity was observed; also recorded: no evidence of any CBD-C4 mutagenic activity; also recorded: does not induce mutation
same,% hedgehogs in liver,[5]; [8],no dose-related increase
same,group mean tail intensity and tail moment,"[5]; all groups, 125, 250 and 500 mg/kg/day oral gavage",comparable with the group mean vehicle control data
same,DNA damage in the liver (Comet assay),[5]; up to 500 mg/kg/day oral gavage,did not induce DNA damage; also recorded: No genotoxicity was observed
same,clinical pathology parameters,[6]; [9],no adverse changes
same,clinical signs,[6]; [9],no adverse clinical signs
same,"food consumption, body weight, body weight gains and ophthalmoscopy",[6]; [9],unaffected
same,test article-related deaths,[6]; [9],no test article-related deaths
same,tolerability,[6]; [9],well tolerated
same,liver findings,"[6]; after 4 and 13 weeks of treatment, predominantly at 100 mg/kg/day, considered non-adverse",Large livers with correlating organ weight increase and centrilobular hypertrophy
same,NOAEL at 13 weeks,"[7]; 13-week daily oral gavage, rats",100 mg/kg/day
same,NOAEL at 13 weeks,"[7]; 13-week oral, sesame oil formulation, rats (summary)",100 mg/kg
